Patent US9266883B2, “Ring-fused bicyclic pyridyl derivatives as FGFR4 inhibitors” (Novartis AG, priority 2013, dated 2016)
Each block holds one compound with its values, some of them ahead of it.

Assays:
[1] = target: FGFR4 (GST-FGFR4(388-802)) (Homo sapiens (Human), UniProt P22455); assay: In-vitro biochemical kinase assay for FGFR4 (Caliper microfluidic mobility shift); conditions: read-out: Biochemical FGFR4 IC50
[2] = test system: HuH-7 hepatocellular carcinoma cells; assay: CellTiter Glo (CTG) Assay; conditions: Homo sapiens, Huh-7, 72 h, read-out: HUH7 proliferation (nM) CTG
Tel-FGFR4 = Tel-FGFR4 (Homo sapiens (Human), UniProt P22455); assay: In vitro cellular kinase assay for FGFR4 (BaF3-Tel-FGFR4 cells, MSD capture ELISA of tyrosine phosphorylation); format: cell-based; conditions: BaF3-Tel-FGFR4 cells, 1 hour incubation; read-out: Cellular BaF3 FGFR4 IC50
FGFR3 (411-806) = FGFR3 (411-806) (Homo sapiens (Human), UniProt P22607); assay: In vitro biochemical assay for FGFR3
FGFR2 (406-821) = FGFR2 (406-821) (Homo sapiens (Human), UniProt P21802); assay: In vitro biochemical assay for FGFR2
FGFR1 (407-822) = FGFR1 (407-822) (Homo sapiens (Human), UniProt P11362); assay: In vitro biochemical assay for FGFR1
FGFR1 (407-822), sequence (P11362 407-822): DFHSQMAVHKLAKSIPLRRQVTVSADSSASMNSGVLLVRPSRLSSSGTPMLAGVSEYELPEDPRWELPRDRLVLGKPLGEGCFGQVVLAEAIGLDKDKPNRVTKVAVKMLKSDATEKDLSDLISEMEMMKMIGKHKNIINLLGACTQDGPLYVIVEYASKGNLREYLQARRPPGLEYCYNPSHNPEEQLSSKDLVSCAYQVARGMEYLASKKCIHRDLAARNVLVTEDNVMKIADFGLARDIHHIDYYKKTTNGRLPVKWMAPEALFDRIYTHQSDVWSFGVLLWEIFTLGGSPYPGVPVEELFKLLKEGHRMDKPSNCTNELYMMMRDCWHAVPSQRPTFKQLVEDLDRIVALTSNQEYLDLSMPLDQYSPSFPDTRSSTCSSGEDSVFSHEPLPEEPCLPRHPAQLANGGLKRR

FGFR2 (406-821), sequence (P21802 406-821): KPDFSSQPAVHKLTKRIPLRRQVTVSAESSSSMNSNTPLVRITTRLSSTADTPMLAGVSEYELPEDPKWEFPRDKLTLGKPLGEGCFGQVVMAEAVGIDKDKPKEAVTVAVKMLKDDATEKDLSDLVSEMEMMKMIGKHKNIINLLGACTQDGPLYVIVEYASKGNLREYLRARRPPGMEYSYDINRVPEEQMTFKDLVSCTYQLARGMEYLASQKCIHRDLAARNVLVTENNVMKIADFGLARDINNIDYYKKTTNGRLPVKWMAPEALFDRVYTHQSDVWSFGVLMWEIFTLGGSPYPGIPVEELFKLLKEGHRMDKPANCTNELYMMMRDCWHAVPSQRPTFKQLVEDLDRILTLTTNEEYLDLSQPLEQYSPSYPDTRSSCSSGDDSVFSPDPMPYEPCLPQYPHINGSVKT
FGFR3 (411-806), sequence (P22607 411-806): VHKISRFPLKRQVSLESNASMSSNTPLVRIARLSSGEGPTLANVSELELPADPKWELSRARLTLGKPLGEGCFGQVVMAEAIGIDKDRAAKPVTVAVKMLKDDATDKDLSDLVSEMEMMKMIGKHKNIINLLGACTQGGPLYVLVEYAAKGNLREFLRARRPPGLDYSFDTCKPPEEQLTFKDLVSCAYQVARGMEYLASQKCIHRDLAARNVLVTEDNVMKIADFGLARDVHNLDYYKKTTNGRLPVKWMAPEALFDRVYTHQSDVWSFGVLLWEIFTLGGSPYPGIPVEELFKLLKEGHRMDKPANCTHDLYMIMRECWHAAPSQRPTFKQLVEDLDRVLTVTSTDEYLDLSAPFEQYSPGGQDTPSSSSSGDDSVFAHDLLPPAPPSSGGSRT
Tel-FGFR4, sequence (P22455 other isoform, or with tags, fused parts or gaps): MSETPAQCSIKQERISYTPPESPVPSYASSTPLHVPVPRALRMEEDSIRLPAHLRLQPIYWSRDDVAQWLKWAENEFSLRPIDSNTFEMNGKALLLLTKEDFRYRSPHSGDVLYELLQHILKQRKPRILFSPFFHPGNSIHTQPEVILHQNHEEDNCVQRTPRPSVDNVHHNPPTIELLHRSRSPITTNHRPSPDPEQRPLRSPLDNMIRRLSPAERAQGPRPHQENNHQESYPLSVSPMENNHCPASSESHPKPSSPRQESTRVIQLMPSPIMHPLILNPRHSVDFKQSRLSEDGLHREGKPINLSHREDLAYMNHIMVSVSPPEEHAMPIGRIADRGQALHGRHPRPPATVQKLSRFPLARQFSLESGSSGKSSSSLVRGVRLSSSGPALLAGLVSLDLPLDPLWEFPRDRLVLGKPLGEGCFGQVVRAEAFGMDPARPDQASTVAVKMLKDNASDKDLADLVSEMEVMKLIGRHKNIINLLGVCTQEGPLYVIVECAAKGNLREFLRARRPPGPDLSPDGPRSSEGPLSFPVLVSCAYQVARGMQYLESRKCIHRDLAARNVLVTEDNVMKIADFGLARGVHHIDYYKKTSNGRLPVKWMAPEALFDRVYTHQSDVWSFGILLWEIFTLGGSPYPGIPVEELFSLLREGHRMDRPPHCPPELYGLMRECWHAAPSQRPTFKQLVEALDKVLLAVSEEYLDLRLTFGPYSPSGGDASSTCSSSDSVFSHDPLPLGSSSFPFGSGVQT
FGFR4 (GST-FGFR4(388-802)), sequence (P22455 388-802): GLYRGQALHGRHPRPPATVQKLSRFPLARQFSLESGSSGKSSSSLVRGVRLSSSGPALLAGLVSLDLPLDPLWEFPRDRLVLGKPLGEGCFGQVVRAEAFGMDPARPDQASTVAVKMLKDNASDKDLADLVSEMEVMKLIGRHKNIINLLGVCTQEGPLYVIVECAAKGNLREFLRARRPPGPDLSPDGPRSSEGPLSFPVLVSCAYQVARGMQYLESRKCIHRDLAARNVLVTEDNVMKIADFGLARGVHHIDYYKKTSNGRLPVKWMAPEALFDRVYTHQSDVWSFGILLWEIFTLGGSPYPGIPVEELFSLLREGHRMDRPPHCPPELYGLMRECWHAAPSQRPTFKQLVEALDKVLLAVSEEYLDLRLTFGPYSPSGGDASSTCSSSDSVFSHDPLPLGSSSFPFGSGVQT

Compound: COCCNc1cc(NC(=O)N2CCCc3cc(CN4CC[C@H](O)C4=O)c(C=O)nc32)ncc1C#N [Example 100, (S)-N-(5-cyano-4-((2-methoxyethyl)amino)pyridin-2-yl)-7-formyl-6-((3-hydroxy-2-oxopyrrolidin-1-yl)methyl)-3,4-dihydro-1,8-naphthyridine-1(2H)-carboxamide]
- IC50 [1]: 0.9 nM
- IC50 [2]: 23.5 nM
- IC50 (Tel-FGFR4): 5.3 nM

Compound: COCCNc1cc(NC(=O)N2CCCc3cc(CN4CC[C@@H](O)C4=O)c(C=O)nc32)ncc1C#N [Example 105, (R)-N-(5-cyano-4-((2-methoxyethyl)amino)pyridin-2-yl)-7-formyl-6-((3-hydroxy-2-oxopyrrolidin-1-yl)methyl)-3,4-dihydro-1,8-naphthyridine-1(2H)-carboxamide]
- IC50 [1]: 0.8 nM
- IC50 [2]: 32.5 nM
- IC50 (Tel-FGFR4): 6.2 nM

Compound: CCc1cc(NC(=O)N2CCCc3cc(C=O)c(C=O)nc32)ncc1C#N [Example 106, N-(5-cyano-4-ethylpyridin-2-yl)-6,7-diformyl-3,4-dihydro-1,8-naphthyridine-1(2H)-carboxamide]
- IC50 [1]: 95 nM
- IC50 [2]: > 3000 nM
- IC50 (Tel-FGFR4): 2530 nM

Compound: COCCNc1cc(NC(=O)N2CCCc3cc(CN(CCN(C)C)S(C)(=O)=O)c(C=O)nc32)ncc1C#N [Example 144, N-(5-cyano-4-((2-methoxyethyl)amino)pyridin-2-yl)-6-((N-(2-(dimethylamino)ethyl)methylsulfonamido)methyl)-7-formyl-3,4-dihydro-1,8-naphthyridine-1(2H)-carboxamide]
- IC50 [1]: 2.3 nM
- IC50 [2]: 504 nM
- IC50 (Tel-FGFR4): 18.5 nM

Compound: CC(C)Oc1cc(NC(=O)N2CCCc3cc(CN(C)C(=O)CN(C)C)c(C=O)nc32)ncc1C#N [Example 145, N-(5-cyano-4-isopropoxypyridin-2-yl)-6-((2-(dimethylamino)-N-methylacetamido)methyl)-7-formyl-3,4-dihydro-1,8-naphthyridine-1(2H)-carboxamide]
- IC50 [1]: 0.4 nM
- IC50 [2]: 154 nM
- IC50 (Tel-FGFR4): 15 nM

Compound: COC[C@@H](Oc1cc(NC(=O)N2CCCc3cc(C(F)F)c(C=O)nc32)ncc1C#N)C(F)(F)F [Example 173, (R)-N-(5-cyano-4-((1,1,1-trifluoro-3-methoxypropan-2-yl)oxy)pyridin-2-yl)-6-(difluoromethyl)-7-formyl-3,4-dihydro-1,8-naphthyridine-1(2H)-carboxamide]
- IC50 [1]: 33 nM
- IC50 [2]: 1360 nM
- IC50 (Tel-FGFR4): 142 nM

Compound: CC(=O)N(C)Cc1cc2c(nc1C=O)N(C(=O)Nc1cc(NCCOC(F)(F)F)c(C#N)cn1)CCC2 [Example 188, N-(5-cyano-4-((2-(trifluoromethoxy)ethyl)amino)pyridin-2-yl)-7-formyl-6-((N-methylacetamido)methyl)-3,4-dihydro-1,8-naphthyridine-1(2H)-carboxamide]
- IC50 [1]: 0.4 nM
- IC50 [2]: 59 nM
- IC50 (Tel-FGFR4): 5.2 nM

Compound: CN1CCN(Cc2cc3c(nc2C=O)N(C(=O)Nc2cc(NCCOC(C)(C)C)c(C#N)cn2)CCC3)C(=O)C1 [Example 196, N-(4-((2-(tert-butoxy)ethyl)amino)-5-cyanopyridin-2-yl)-7-formyl-6-((4-methyl-2-oxopiperazin-1-yl)methyl)-3,4-dihydro-1,8-naphthyridine-1(2H)-carboxamide]
- IC50 [2]: 150 nM
- IC50 (Tel-FGFR4): 18 nM

Compound: CC(C)n1cnc2cnc(NC(=O)N3CCCc4cc(CN5CCCC5=O)c(C=O)nc43)cc21 [Example 220, 7-formyl-N-(1-isopropyl-1H-imidazo[4,5-c]pyridin-6-yl)-6-((2-oxopyrrolidin-1-yl)methyl)-3,4-dihydro-1,8-naphthyridine-1(2H)-carboxamide]
- IC50 [1]: 96 nM
- IC50 [2]: > 3000 nM
- IC50 (Tel-FGFR4): 94 nM

Compound: COCCNc1cc(NC(=O)N2CCCc3cc(CN4C[C@@H](C)N[C@@H](C)C4)c(C=O)nc32)ncc1C#N [Example 242, N-(5-cyano-4-((2-methoxyethyl)amino)pyridin-2-yl)-6-(((3R,5S)-3,5-dimethylpiperazin-1-yl)methyl)-7-formyl-3,4-dihydro-1,8-naphthyridine-1(2H)-carboxamide]
- IC50 [1]: 2.6 nM
- IC50 [2]: 1780 nM
- IC50 (Tel-FGFR4): 27 nM

Compound: COCCNc1cc(NC(=O)N2CCCc3cc(-n4ccnc4)c(C=O)nc32)ncc1C#N [Example 254, N-(5-cyano-4-((2-methoxyethyl)amino)pyridin-2-yl)-7-formyl-6-(1H-imidazol-1-yl)-3,4-dihydro-1,8-naphthyridine-1(2H)-carboxamide]
- IC50 [1]: 1.1 nM
- IC50 [2]: 1160 nM
- IC50 (Tel-FGFR4): 44.5 nM

Compound: COCCNc1cc(NC(=O)N2CCCc3cc(N4CCOC4=O)c(C=O)nc32)ncc1C#N [Example 263, N-(5-cyano-4-((2-methoxyethyl)amino)pyridin-2-yl)-7-formyl-6-(2-oxooxazolidin-3-yl)-3,4-dihydro-1,8-naphthyridine-1(2H)-carboxamide]
- IC50 [1]: 0.2 nM
- IC50 [2]: 894 nM
- IC50 (Tel-FGFR4): 11 nM

Next, values leading:

- IC50 [1]: 8.1 nM
- IC50 [2]: 1230 nM
- IC50 (Tel-FGFR4): 31.3 nM
Compound: N#Cc1cnc(NC(=O)N2CCCc3cc(CO)c(C=O)nc32)cc1OCC1CCCCO1 (racemic) [Example 44, N-(5-cyano-4-((tetrahydro-2H-pyran-2-yl)methoxy)pyridin-2-yl)-7-formyl-6-(hydroxymethyl)-3,4-dihydro-1,8-naphthyridine-1(2H)-carboxamide]

- IC50 (FGFR3 (411-806)): > 10000 nM
- IC50 (FGFR2 (406-821)): > 10000 nM
- IC50 (FGFR1 (407-822)): > 10000 nM
Compound: N#Cc1cnc(NC(=O)N2CCCc3cc(CO)c(C=O)nc32)cc1NC1CCOC1 (racemic) [Example 56, N-(5-cyano-4-((tetrahydrofuran-3-yl)amino)pyridin-2-yl)-7-formyl-6-(hydroxymethyl)-3,4-dihydro-1,8-naphthyridine-1(2H)-carboxamide]

- IC50 [1]: 3.9 nM
- IC50 [2]: 436 nM
- IC50 (Tel-FGFR4): 11.3 nM
Compound: COC(C)CNc1cc(NC(=O)N2CCCc3cc(CO)c(C=O)nc32)ncc1C#N (racemic) [Example 57, N-(5-cyano-4-((2-methoxypropyl)amino)pyridin-2-yl)-7-formyl-6-(hydroxymethyl)-3,4-dihydro-1,8-naphthyridine-1(2H)-carboxamide]

- IC50 [1]: 0.8 nM
- IC50 [2]: 65 nM
- IC50 (Tel-FGFR4): 14.6 nM
Compound: N#Cc1cnc(NC(=O)N2CCCc3cc(CO)c(C=O)nc32)cc1N[C@@H]1[C@H]2CC[C@H](C2)[C@@H]1CO (racemic) [Example 65, N-(5-cyano-4-(((1S*,2R*,3S*,4R*)-3-(hydroxymethyl)bicyclo[2.2.1]heptan-2-yl)amino)pyridin-2-yl)-7-formyl-6-(hydroxymethyl)-3,4-dihydro-1,8-naphthyridine-1(2H)-carboxamide]

- IC50 (FGFR3 (411-806)): > 10000 nM
- IC50 (FGFR2 (406-821)): > 10000 nM
- IC50 (FGFR1 (407-822)): > 10000 nM
Compound: CN(C)CC(C)(O)CNc1cc(NC(=O)N2CCCc3cc(CO)c(C=O)nc32)ncc1C#N (racemic) [Example 87, N-(5-cyano-4-((3-(dimethylamino)-2-hydroxy-2-methylpropyl)amino)pyridin-2-yl)-7-formyl-6-(hydroxymethyl)-3,4-dihydro-1,8-naphthyridine-1(2H)-carboxamide]

- IC50 [1]: 5.7 nM
- IC50 [2]: 1000 nM
- IC50 (Tel-FGFR4): 76.5 nM
Compound: N#Cc1cnc(NC(=O)N2CCCc3cc(CN4CCCC4=O)c(C=O)nc32)cc1OCC1CCNC(=O)C1 (racemic) [Example 225, N-(5-cyano-4-((2-oxopiperidin-4-yl)methoxy)pyridin-2-yl)-7-formyl-6-((2-oxopyrrolidin-1-yl)methyl)-3,4-dihydro-1,8-naphthyridine-1(2H)-carboxamide]

- IC50 (FGFR3 (411-806)): > 10000 nM
- IC50 (FGFR2 (406-821)): > 10000 nM
- IC50 (FGFR1 (407-822)): > 10000 nM
Compound: O=Cc1ccc2c(n1)N(C(=O)Nc1ccc(C(F)(F)F)cn1)CCC2 [Example 1, 7-formyl-N-(5-(trifluoromethyl)pyridin-2-yl)-3,4-dihydro-1,8-naphthyridine-1(2H)-carboxamide]

- IC50 [2]: 134 nM
Compound: COCCOc1cc(NC(=O)N2c3nc(C=O)c(CN4CCN(C)CC4=O)cc3CC[C@@H]2C)ncc1C#N [Example 226, (S)-N-(5-cyano-4-(2-methoxyethoxyl)pyridin-2-yl)-7-formyl-2-methyl-6-((4-methyl-2-oxopiperazin-1-yl)methyl)-3,4-dihydro-1,8-naphthyridine-1(2H)-carboxamide]

- IC50 [2]: 104 nM
Compound: CC(C)Oc1cc(NC(=O)N2c3nc(C=O)c(CN4CCN(C)CC4=O)cc3CC[C@@H]2C)ncc1C#N [Example 227, (S)-N-(5-cyano-4-isopropoxypyridin-2-yl)-7-formyl-2-methyl-6-((4-methyl-2-oxopiperazin-1-yl)methyl)-3,4-dihydro-1,8-naphthyridine-1(2H)-carboxamide]

- IC50 [2]: 103 nM
- IC50 (Tel-FGFR4): 11.5 nM
Compound: COCCNc1cc(NC(=O)N2CCCc3cc(CN4CCN(C)C(C)(C)C4=O)c(C=O)nc32)ncc1C#N [Example 245, N-(5-cyano-4-((2-methoxyethyl)amino)pyridin-2-yl)-7-formyl-6-((3,3,4-trimethyl-2-oxopiperazin-1-yl)methyl)-3,4-dihydro-1,8-naphthyridine-1(2H)-carboxamide]

- IC50 [2]: 222 nM
- IC50 (FGFR2 (406-821)): > 10000 nM
- IC50 (FGFR1 (407-822)): > 10000 nM
Compound: COCCNc1cc(NC(=O)N2CCCc3cc(C4CCOCC4)c(C=O)nc32)ncc1C#N [Example 249, N-(5-cyano-4-((2-methoxyethyl)amino)pyridin-2-yl)-7-formyl-6-(tetrahydro-2H-pyran-4-yl)-3,4-dihydro-1,8-naphthyridine-1(2H)-carboxamide]

- IC50 [2]: 1360 nM
Compound: COCCNc1cc(NC(=O)N2CCCc3cc(-c4cccnc4)c(C=O)nc32)ncc1C#N [Example 256, N-(5-cyano-4-((2-methoxyethyl)amino)pyridin-2-yl)-7-formyl-6-(pyridin-3-yl)-3,4-dihydro-1,8-naphthyridine-1(2H)-carboxamide]
